The source of these data is patent US10722501B2 (BAYER AKTIENGESELLSCHAFT, priority 2016, dated 2020).

pIC50: −log10 of the molar value.

This assay addresses T1, recombinant full-length human prolyl endopeptidase (PREP) (Homo sapiens, UniProt P48147).
T1 construct: To recombinant full-length human prolyl endopeptidase (PREP, R&D-Systems, 4308-SE); purchased R&D-Systems 4308-SE
T1 sequence (P48147 1-710): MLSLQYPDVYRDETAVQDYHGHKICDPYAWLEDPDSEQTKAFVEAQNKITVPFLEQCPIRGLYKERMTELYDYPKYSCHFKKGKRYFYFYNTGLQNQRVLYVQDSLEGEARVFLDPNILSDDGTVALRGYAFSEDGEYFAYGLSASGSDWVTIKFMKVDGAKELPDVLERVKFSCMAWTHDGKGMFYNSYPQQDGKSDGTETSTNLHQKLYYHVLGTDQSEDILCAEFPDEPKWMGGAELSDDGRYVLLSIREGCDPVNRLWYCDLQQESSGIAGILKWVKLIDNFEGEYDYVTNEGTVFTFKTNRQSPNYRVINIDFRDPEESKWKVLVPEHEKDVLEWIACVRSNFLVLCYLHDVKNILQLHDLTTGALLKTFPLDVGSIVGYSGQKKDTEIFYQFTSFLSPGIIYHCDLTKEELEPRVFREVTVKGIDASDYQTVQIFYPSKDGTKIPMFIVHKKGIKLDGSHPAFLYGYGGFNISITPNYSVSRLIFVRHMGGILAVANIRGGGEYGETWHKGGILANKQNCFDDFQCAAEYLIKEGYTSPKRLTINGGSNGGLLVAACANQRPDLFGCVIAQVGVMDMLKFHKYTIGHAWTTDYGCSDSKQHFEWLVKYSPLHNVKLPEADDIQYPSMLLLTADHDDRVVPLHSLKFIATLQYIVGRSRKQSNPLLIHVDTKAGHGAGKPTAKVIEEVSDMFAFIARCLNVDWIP
Briefly: Biochemical human prolyl endopeptidase (PREP) assay with fluorescently labelled substrate. Conditions: substrate Z-Gly-Pro-AMC 50 μM, 32° C., 60 min; some as mean values from multiple independent determinations. An outline of the steps: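 0.4 nM (final, example) recombinant PREP in pH 7.5 Tris buffer with EDTA, GSH, BSA and Brij-35; compounds at 1 nM to 30 μM. Reaction started with 50 μM Z-Gly-Pro-AMC and followed by fluorescence (ex 360/em 465 nm) at 32° C for 60 min. IC50 interpolated from percent activity based on initial slopes.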
The pIC50 is the negative decadic logarithm of the IC50, by convention in mol/L. Take `CC(c1ccc(Cl)cc1)n1nc2n(c1=O)C(C(=O)N1CCCC1)CCC2` (racemic) [Example 3, (5RS)-2-[(1 RS)-1-(4-Chlorophenyl)ethyl]-5-(pyrrolidin-1-ylcarbonyl)-5,6,7,8-tetrahydro[1,2,4]triazolo[4,3-a]pyridin-3(2H)-one]: the pIC50 was 8.22.

`CSc1ccc(Cn2nc3n(c2=O)C(C(=O)N2CCCC2)CCC3)cc1` (racemic) [Example 30, (5RS)-2-[4-(Methylsulphanyl)benzyl]-5-(pyrrolidin-1-ylcarbonyl)-5,6,7,8-tetrahydro[1,2,4]triazolo[4,3-a]pyridin-3(2H)-one]: the pIC50 is 8.80. `O=C([C@@H]1CCCc2nn(Cc3cc(C(F)(F)F)c(Cl)cn3)c(=O)n21)N1CC[C@H](O)C1` [Example 374, (5S)-2-{[5-Chloro-4-(trifluoromethyl)pyridin-2-yl]methyl}-5-{[(3S)-3-hydroxypyrrolidin-1-yl]carbonyl}-5,6,7,8-tetrahydro[1,2,4]triazolo[4,3-a]pyridin-3(2H)-one]: the pIC50 was 7.29. Next, `O=C([C@@H]1CCCc2nn(Cc3ncc(Cl)cc3F)c(=O)n21)N1CC(F)C(F)C1` (some centres unmarked) [Example 549]: 7.44; `N#Cc1ccc(Cn2nc3n(c2=O)C(C(=O)N2CCCC2)CCC3)cn1` (racemic) [Example 35, 5-{[(5RS)-3-Oxo-5-(pyrrolidin-1-ylcarbonyl)-5,6,7,8-tetrahydro[1,2,4]triazolo[4,3-a]pyridin-2(3H)-yl]methyl}pyridine-2-carbonitrile]: 7.82; `O=C(C1CC(C(F)(F)F)Cc2nn(Cc3ccnc(C(F)(F)F)c3F)c(=O)n21)N1C[C@@H](F)[C@@H](F)C1` (single isomer, unassigned) [Example 259]: 7.77. Under `COC1CN(C(=O)C2CCCc3nn(Cc4ccc(C)cc4)c(=O)n32)C1` (racemic) [Example 125, (5RS)-5-[(3-Methoxyazetidin-1-yl)carbonyl]-2-(4-methylbenzyl)-5,6,7,8-tetrahydro[1,2,4]triazolo[4,3-a]pyridin-3(2H)-one] stands 7.60. Next, `O=C([C@@H]1CCc2nn(Cc3ccc(C(F)(F)F)nc3)c(=O)n21)N1CCCC1` [Example 50, (5S)-5-(Pyrrolidin-1-ylcarbonyl)-2-{[6-(trifluoromethyl)pyridin-3-yl]methyl}-2,5,6,7-tetrahydro-3H-pyrrolo[2,1-c][1,2,4]triazol-3-one]: 7.92; `O=C([C@@H]1CCCc2nn(Cc3ncccc3Cl)c(=O)n21)N1CC[C@H](F)C1` [Example 393, (5S)-2-[(3-Chloropyridin-2-yl)methyl]-5-{[(3S)-3-fluoropyrrolidin-1-yl]carbonyl}-5,6,7,8-tetrahydro[1,2,4]triazolo[4,3-a]pyridin-3(2H)-one]: 8.85.

Take `O=C(C1CCCc2nn(CC3CCC(C(F)(F)F)CC3)c(=O)n21)N1CCCC1` (racemic) [Example 40, (5RS)-5-(Pyrrolidin-1-ylcarbonyl)-2-{[4-(trifluoromethyl)cyclohexyl]methyl}-5,6,7,8-tetrahydro[1,2,4]triazolo[4,3-a]pyridin-3(2H)-one]: the pIC50 is 8.28. Under `O=C([C@@H]1CCCc2nn(Cc3cnc(C(F)(F)F)nc3)c(=O)n21)N1CC[C@H](F)C1` [Example 559, (5S)-5-{[(3S)-3-Fluoropyrrolidin-1-yl]carbonyl}-2-{[2-(trifluoromethyl)pyrimidin-5-yl]methyl}-5,6,7,8-tetrahydro[1,2,4]triazolo[4,3-a]pyridin-3(2H)-one] stands 7.46; under `O=C(C1C(C(F)(F)F)CCc2nn(Cc3ncc(Cl)cc3Cl)c(=O)n21)N1CCC(F)(F)C1` (racemic) [Example 289, (5RS,6RS)-2-[(3,5-Dichloropyridin-2-yl)methyl]-5-[(3,3-difluoropyrrolidin-1-yl)carbonyl]-6-(trifluoromethyl)-5,6,7,8-tetrahydro[1,2,4]triazolo[4,3-a]pyridin-3(2H)-one], 6.93.

With `O=C(C1CCCc2nn(Cc3ccc(Cl)c(C(F)(F)F)c3)c(=O)n21)N1CCC(F)(F)C1` (racemic) [Example 43], the pIC50 was 8.72. Under `O=C([C@@H]1CCCc2nn(Cc3ncccc3Cl)c(=O)n21)N1C[C@@H](F)[C@@H](F)C1` [Example 395, (5S)-2-[(3-Chloropyridin-2-yl)methyl]-5-{[(3R,4S)-3,4-difluoropyrrolidin-1-yl]carbonyl}-5,6,7,8-tetrahydro[1,2,4]triazolo[4,3-a]pyridin-3(2H)-one] stands 8.80. In the case of `O=C([C@@H]1CCCc2nn(Cc3ncc(C(F)(F)F)cc3Cl)c(=O)n21)N1CC[C@H](F)C1` [Example 405, (5S)-2-{[3-Chloro-5-(trifluoromethyl)pyridin-2-yl]methyl}-5-{[(3S)-3-fluoropyrrolidin-1-yl]carbonyl}-5,6,7,8-tetrahydro[1,2,4]triazolo[4,3-a]pyridin-3(2H)-one], the pIC50 is 9.65. Under `Cc1ccc(Cn2nc3n(c2=O)C(C(=O)N2CC(O)C2)CCC3)cc1` (racemic) [Example 120, (5RS)-5-[(3-Hydroxyazetidin-1-yl)carbonyl]-2-(4-methylbenzyl)-5,6,7,8-tetrahydro[1,2,4]triazolo[4,3-a]pyridin-3(2H)-one] stands 8.02; under `O=C(C1CC(C(F)(F)F)Cc2nn(Cc3ncc(F)cc3F)c(=O)n21)N1CC[C@H](F)C1` (mixture of isomers) [Example 569, (5RS,7RS)-2-[(3,5-Difluoropyridin-2-yl)methyl]-5-{[(3S)-3-fluoropyrrolidin-1-yl]carbonyl}-7-(trifluoromethyl)-5,6,7,8-tetrahydro[1,2,4]triazolo[4,3-a]pyridin-3(2H)-one], 9.07; under `O=C([C@@H]1CCCc2nn(Cc3ccc(Cl)cn3)c(=O)n21)N1CC(F)C1` [Example 379, (5S)-2-[(5-Chloropyridin-2-yl)methyl]-5-[(3-fluoroazetidin-1-yl)carbonyl]-5,6,7,8-tetrahydro[1,2,4]triazolo[4,3-a]pyridin-3(2H)-one], 8.60. On to `O=C([C@@H]1CCCc2nn(Cc3ccc(F)cc3)c(=O)n21)N1CCC(F)(F)C1` [Example 451, (5S)-5-[(3,3-Difluoropyrrolidin-1-yl)carbonyl]-2-(4-fluorobenzyl)-5,6,7,8-tetrahydro[1,2,4]triazolo[4,3-a]pyridin-3(2H)-one], for which the pIC50 is 8.96. For the compound `Cc1nonc1Cn1nc2n(c1=O)C(C(=O)N1CCCC1)CCC2` (racemic) [Example 60, (5RS)-2-[(4-Methyl-1,2,5-oxadiazol-3-yl)methyl]-5-(pyrrolidin-1-ylcarbonyl)-5,6,7,8-tetrahydro[1,2,4]triazolo[4,3-a]pyridin-3(2H)-one], the pIC50 is 7.73. Under `O=C([C@@H]1CCCc2nn(Cc3ccc(C(F)(F)F)c(F)c3)c(=O)n21)N1CC(F)C1` [Example 473, (5S)-5-[(3-Fluoroazetidin-1-yl)carbonyl]-2-[3-fluoro-4-(trifluoromethyl)benzyl]-5,6,7,8-tetrahydro[1,2,4]triazolo[4,3-a]pyridin-3(2H)-one] stands 9.77; under `O=C(C1CC(C(F)(F)F)Cc2nn(Cc3cncc(Cl)c3)c(=O)n21)N1CC[C@H](F)C1` (single isomer, unassigned) [Example 317], 9.39; under `O=C(C1CC(C(F)(F)F)Cc2nn(Cc3ccc(Cl)nc3)c(=O)n21)N1CC[C@@H](F)C1` (mixture of isomers) [Example 245, (5RS,7RS)-2-[(6-Chloropyridin-3-yl)methyl]-5-{[(3R)-3-fluoropyrrolidin-1-yl]carbonyl}-7-(trifluoromethyl)-5,6,7,8-tetrahydro[1,2,4]triazolo[4,3-a]pyridin-3(2H)-one], 8.16.

Regarding `O=C(C1CC(C(F)(F)F)Cc2nn(Cc3ccc(Cl)nc3)c(=O)n21)N1CCC(F)(F)C1` (single isomer, unassigned) [Example 231, (5RS,7RS)-2-[(6-Chloropyridin-3-yl)methyl]-5-[(3,3-difluoropyrrolidin-1-yl)carbonyl]-7-(trifluoromethyl)-5,6,7,8-tetrahydro[1,2,4]triazolo[4,3-a]pyridin-3(2H)-one], the negative-log IC50 (pIC50) was 7.32. Next, `O=C(C1CC(C(F)(F)F)Cc2nn(Cc3ccc(Cl)nc3)c(=O)n21)N1CC[C@H](F)C1` (mixture of isomers) [Example 241, (5RS,7RS)-2-[(6-Chloropyridin-3-yl)methyl]-5-{[(3S)-3-fluoropyrrolidin-1-yl]carbonyl}-7-(trifluoromethyl)-5,6,7,8-tetrahydro[1,2,4]triazolo[4,3-a]pyridin-3(2H)-one]: 8.24; `O=C(C1CCCc2nn(Cc3ccc(C(F)(F)F)nc3)c(=O)n21)N1CCC(F)(F)C1` (racemic) [Example 79, (5RS)-5-[(3,3-Difluoropyrrolidin-1-yl)carbonyl]-2-{[6-(trifluoromethyl)pyridin-3-yl]methyl}-5,6,7,8-tetrahydro[1,2,4]triazolo[4,3-a]pyridin-3(2H)-one]: 8.17.
